Assay results from US5466671A, “Apidaecin-type peptide antibiotics with improved activities and/or different antibacterial spectrum” (priority 1994, dated 1995).
Residues, ends and D or L forms follow the SMILES beside them. No end group written: not given here.

Tests used:
E. coli 23802 = assay: Minimal inhibitory concentration (liquid culture); settings: inoculum 5000 CFU/ml; a-b = highest concentration with growth - lowest without growth
Salmonella typhimurium = assay: Inhibition zone assay (agar plate); type: cell-based; settings: agar plate, 50 nanomoles/well, 3 mm wells
Y. enterocolitica = assay: Minimal inhibitory concentration (liquid culture); settings: inoculum 5000 CFU/ml; a-b = highest concentration with growth - lowest without growth
Klebsiella pneumoniae = assay: Inhibition zone assay (agar plate); type: cell-based; settings: agar plate, 50 nanomoles/well, 3 mm wells
Erwinia amylovora = assay: Inhibition zone assay (agar plate); type: cell-based; settings: agar plate, 50 nanomoles/well, 3 mm wells
[1] = test system: Agrobacterium tumefaciens; assay: Inhibition zone assay (agar plate); type: cell-based; settings: agar plate, 50 nanomoles/well, 3 mm wells
Rhizobium meliloti = assay: Inhibition zone assay (agar plate); type: cell-based; settings: 50 nanomoles/well, 3 mm wells
M. morganii = assay: Minimal inhibitory concentration (liquid culture); settings: inoculum 400 CFU/ml; a-b = highest concentration with growth - lowest without growth
E. coli 25922 = assay: Minimal inhibitory concentration (liquid culture); settings: inoculum 1100 CFU/ml; a-b = highest concentration with growth - lowest without growth
Francisella tularensis = type: cell-based; settings: agar plate, 50 nanomoles/well, 3 mm wells
E. coli 11775 = assay: Minimal inhibitory concentration (liquid culture); settings: a-b = highest concentration with growth - lowest without growth
S. typhimurium = assay: Minimal inhibitory concentration (liquid culture); settings: inoculum 8 × 10^6 CFU/ml; a-b = highest concentration with growth - lowest without growth
E. coli Apid^R = assay: Minimal inhibitory concentration (liquid culture); type: cell-based; settings: a-b = highest concentration with growth - lowest without growth
Source text: For details see `Experimental Procedures`.

Haemophilus influenzae = assay: Inhibition zone assay (agar plate); type: cell-based; settings: 50 nanomoles/well, 3 mm wells
Enterobacter cloacae = assay: Inhibition zone assay (agar plate); type: cell-based; settings: agar plate, 50 nanomoles/well, 3 mm wells
A. calcoaceticus = assay: Minimal inhibitory concentration (liquid culture); settings: inoculum 16 × 10^6 CFU/ml; a-b = highest concentration with growth - lowest without growth
Escherichia coli (K514) = type: cell-based; settings: agar plate, 50 nanomoles/well, 3 mm wells
Pseudomonas syringae = assay: Inhibition zone assay (agar plate); type: cell-based; settings: agar plate, 50 nanomoles/well, 3 mm wells
[2] = test system: Escherichia coli (ATCC11775); assay: Inhibition zone assay (agar plate); type: cell-based; settings: agar plate, 50 nanomoles/well, 3 mm wells
Yersinia enterocolitica = assay: Inhibition zone assay (agar plate); type: cell-based; settings: 50 nanomoles/well, 3 mm wells
[3] = test system: Acinetobacter calcoaceticus; assay: Inhibition zone assay (agar plate); type: cell-based; settings: agar plate, 50 nanomoles/well, 3 mm wells
Salmonella typhi = type: cell-based; settings: agar plate, 50 nanomoles/well, 3 mm wells
Campylobacter jejuni = assay: Inhibition zone assay (agar plate); type: cell-based; settings: 50 nanomoles/well, 3 mm wells
[4] = test system: Escherichia coli (11775 Apid R); type: cell-based; settings: agar plate, 50 nanomoles/well, 3 mm wells
Morganella morganii = assay: Inhibition zone assay (agar plate); type: cell-based; settings: 50 nanomoles/well, 3 mm wells
Legionella pneumophila = type: cell-based; settings: agar plate, 50 nanomoles/well, 3 mm wells

For `CC(C)C[C@H](NC(=O)[C@H](CCCNC(=N)N)NC(=O)[C@@H]1CCCN1C(=O)[C@H](Cc1c[nH]cn1)NC(=O)[C@@H]1CCCN1C(=O)[C@@H]1CCCN1C(=O)[C@H](CCCNC(=N)N)NC(=O)[C@@H]1CCCN1C(=O)[C@H](C)NC(=O)[C@@H]1CCCN1C(=O)[C@@H](NC(=O)[C@H](Cc1ccc(O)cc1)NC(=O)[C@@H](NC(=O)[C@@H]1CCCN1C(=O)[C@H](CCCNC(=N)N)NC(=O)[C@@H](N)CC(N)=O)[C@@H](C)O)C(C)C)C(=O)O` [Ck A, Asn--Arg--Pro--Thr--Tyr--Val--Pro--Ala--Pro--Arg--Pro--Pro--His--Pro--Arg--Leu] (H-NRPTYVPAPRPPHPRL-OH), the “minimal inhibitory concentration (MIC)” value (E. coli 23802) was greater than 40 µg/mL, the “inhibition zone diameter (number of plus signs)” value (shortened to “inhibition zone diameter”) (Salmonella typhimurium) was “+++ ((+++) 10-14 mm)” and the “minimal inhibitory concentration (MIC)” value (Y. enterocolitica) was 1 to 5 µg/mL. For the same compound, the “inhibition zone diameter” value (Klebsiella pneumoniae) was “++ ((++) 7-9 mm)”, the “inhibition zone diameter” value (Erwinia amylovora) was “+++ ((+++) 10-14 mm)” and the “inhibition zone diameter” value [1] was “++++ ((++++) 15-19 mm)”. The “inhibition zone diameter” value (Rhizobium meliloti) was “++++ ((++++) 15-19 mm)”, the “minimal inhibitory concentration (MIC)” value (M. morganii) was 20 to 40 µg/mL and the “minimal inhibitory concentration (MIC)” value (E. coli 25922) was 1 to 5 µg/mL. For the same compound, the “inhibition zone diameter” value (Francisella tularensis) was “+ ((+) 5-6 mm)”, the “minimal inhibitory concentration (MIC)” value (E. coli 11775; inoculum 16 × 10^6 CFU/ml) was 1 to 5 µg/mL and the “minimal inhibitory concentration (MIC)” value (E. coli 11775; inoculum 1200 CFU/ml) was 0.1 to 0.5 µg/mL. The “minimal inhibitory concentration (MIC)” value (S. typhimurium) was 1 to 5 µg/mL, the “minimal inhibitory concentration (MIC)” value (E. coli Apid^R; inoculum 12 × 10^6 CFU/ml) was greater than 40 µg/mL and the “minimal inhibitory concentration (MIC)” value (E. coli Apid^R; inoculum 1000 CFU/ml) was greater than 40 µg/mL. The “inhibition zone diameter” value (Haemophilus influenzae) was “++ ((++) 7-9 mm)”, the “inhibition zone diameter” value (Enterobacter cloacae) was “++ ((++) 7-9 mm)” and the “minimal inhibitory concentration (MIC)” value (A. calcoaceticus) was greater than 20 µg/mL. The “inhibition zone diameter” value (Escherichia coli (K514)) was “++ ((++) 7-9 mm)”, the “inhibition zone diameter” value (Pseudomonas syringae) was “+++ ((+++) 10-14 mm)” and the “inhibition zone diameter” value [2] was “+++ ((+++) 10-14 mm)”. The “inhibition zone diameter” value (Yersinia enterocolitica) was “+++ ((+++) 10-14 mm)”.

With `CC(C)C[C@H](NC(=O)[C@H](CCCNC(=N)N)NC(=O)[C@@H]1CCCN1C(=O)[C@H](Cc1c[nH]cn1)NC(=O)[C@@H]1CCCN1C(=O)[C@@H]1CCCN1C(=O)[C@H](CCCNC(=N)N)NC(=O)[C@@H]1CCCN1C(=O)[C@@H]1CCCN1C(=O)[C@@H](NC(=O)[C@H](CCC(N)=O)NC(=O)[C@H](CCC(N)=O)NC(=O)[C@@H]1CCCN1C(=O)[C@H](CCCNC(=N)N)NC(=O)[C@@H]1CCCN1C(=O)[C@H](CCCCN)NC(=O)[C@H](CC(N)=O)NC(=O)[C@@H](N)CO)C(C)C)C(=O)O` [Yj +S, Ser--Asn--Lys--Pro--Arg--Pro--Gln--Gln--Val--Pro--Pro--Arg--Pro--Pro--His--Pro--Arg--Leu] (H-SNKPRPQQVPPRPPHPRL-OH) the “minimal inhibitory concentration (MIC)” value (E. coli 23802) was 0.5 to 1 µg/mL, the “inhibition zone diameter” value (Salmonella typhimurium) was “+++ ((+++) 10-14 mm)” and the “minimal inhibitory concentration (MIC)” value (Y. enterocolitica) was 1 to 5 µg/mL. For the same compound, the “inhibition zone diameter” value (Klebsiella pneumoniae) was “++ ((++) 7-9 mm)”, the “inhibition zone diameter” value (Erwinia amylovora) was “+++ ((+++) 10-14 mm)” and the “minimal inhibitory concentration (MIC)” value (M. morganii) was 0.5 to 1 µg/mL. The “minimal inhibitory concentration (MIC)” value (E. coli 25922) was 0.1 to 0.5 µg/mL, the “inhibition zone diameter” value (Francisella tularensis) was “++ ((++) 7-9 mm)” and the “minimal inhibitory concentration (MIC)” value (E. coli 11775; inoculum 16 × 10^6 CFU/ml) was 0.1 to 0.5 µg/mL. For the same compound, the “minimal inhibitory concentration (MIC)” value (E. coli 11775; inoculum 1200 CFU/ml) was 0.1 to 0.5 µg/mL, the “inhibition zone diameter” value [3] was “+ ((+) 5-6 mm)” and the “inhibition zone diameter” value (Salmonella typhi) was “++ ((++) 7-9 mm)”. For the same compound, the “minimal inhibitory concentration (MIC)” value (S. typhimurium) was 0.1 to 0.5 µg/mL, the “minimal inhibitory concentration (MIC)” value (E. coli Apid^R; inoculum 12 × 10^6 CFU/ml) was 10 to 20 µg/mL and the “minimal inhibitory concentration (MIC)” value (E. coli Apid^R; inoculum 1000 CFU/ml) was 1 to 5 µg/mL. For the same compound, the “inhibition zone diameter” value (Haemophilus influenzae) was “+++ ((+++) 10-14 mm)”, the “inhibition zone diameter” value (Enterobacter cloacae) was “++ ((++) 7-9 mm)” and the “minimal inhibitory concentration (MIC)” value (A. calcoaceticus) was 2 to 10 µg/mL. The “inhibition zone diameter” value (Escherichia coli (K514)) was “++ ((++) 7-9 mm)”, the “inhibition zone diameter” value (Pseudomonas syringae) was “++++ ((++++) 15-19 mm)” and the “inhibition zone diameter” value [2] was “+++ ((+++) 10-14 mm)”.

`CC[C@H](C)[C@H](NC(=O)[C@@H]1CCCN1C(=O)[C@H](C)NC(=O)[C@@H]1CCCN1C(=O)[C@H](CCCNC(=N)N)NC(=O)[C@@H]1CCCN1C(=O)[C@H](CCCNC(=N)N)NC(=O)[C@H](CC(N)=O)NC(=O)[C@@H]1CCCN1C(=O)[C@H](CCCCN)NC(=O)CN)C(=O)N[C@@H](CCC(N)=O)C(=O)N1CCC[C@H]1C(=O)N[C@@H](CCCNC(=N)N)C(=O)N1CCC[C@H]1C(=O)N1CCC[C@H]1C(=O)N[C@@H](Cc1c[nH]cn1)C(=O)N1CCC[C@H]1C(=O)N[C@@H](CCCNC(=N)N)C(=O)N[C@@H](CC(C)C)C(=O)O` [Cd 1+, Gly--Lys--Pro--Asn--Arg--Pro--Arg--Pro--Ala--Pro--Ile--Gln--Pro--Arg--Pro--Pro--His--Pro--Arg--Leu] (H-GKPNRPRPAPIQPRPPHPRL-OH) was tested, and the “minimal inhibitory concentration (MIC)” value (E. coli 23802) was 10 to 20 µg/mL, the “inhibition zone diameter” value (Salmonella typhimurium) was “++ ((++) 7-9 mm)” and the “minimal inhibitory concentration (MIC)” value (Y. enterocolitica) was 20 to 40 µg/mL. The “inhibition zone diameter” value (Campylobacter jejuni) was “+++ ((+++) 10-14 mm)”, the “inhibition zone diameter” value [4] was “++ ((++) 7-9 mm)” and the “inhibition zone diameter” value (Klebsiella pneumoniae) was “++ ((++) 7-9 mm)”. For the same compound, the “inhibition zone diameter” value (Erwinia amylovora) was “++ ((++) 7-9 mm)”, the “inhibition zone diameter” value [1] was “++++ ((++++) 15-19 mm)” and the “inhibition zone diameter” value (Rhizobium meliloti) was “++++ ((++++) 15-19 mm)”. The “minimal inhibitory concentration (MIC)” value (M. morganii) was 10 to 20 µg/mL, the “inhibition zone diameter” value (Morganella morganii) was “++ ((++) 7-9 mm)” and the “minimal inhibitory concentration (MIC)” value (E. coli 25922) was 10 to 20 µg/mL. For the same compound, the “minimal inhibitory concentration (MIC)” value (E. coli 11775; inoculum 16 × 10^6 CFU/ml) was greater than 20 µg/mL, the “minimal inhibitory concentration (MIC)” value (E. coli 11775; inoculum 1200 CFU/ml) was 10 to 20 µg/mL and the “inhibition zone diameter” value [3] was “++ ((++) 7-9 mm)”. For the same compound, the “minimal inhibitory concentration (MIC)” value (S. typhimurium) was 10 to 20 µg/mL, the “inhibition zone diameter” value (Haemophilus influenzae) was “++++ ((++++) 15-19 mm)” and the “inhibition zone diameter” value (Enterobacter cloacae) was “+++ ((+++) 10-14 mm)”. The “minimal inhibitory concentration (MIC)” value (A. calcoaceticus) was greater than 20 µg/mL, the “inhibition zone diameter” value (Escherichia coli (K514)) was “++ ((++) 7-9 mm)” and the “inhibition zone diameter” value (Pseudomonas syringae) was “++++ ((++++) 15-19 mm)”. For the same compound, the “inhibition zone diameter” value (Legionella pneumophila) was “++ ((++) 7-9 mm)” and the “inhibition zone diameter” value [2] was “++ ((++) 7-9 mm)”.

With NRPTYVPPPRPPHPRL [Ck P] the “minimal inhibitory concentration (MIC)” value (E. coli 23802) was 20 to 40 µg/mL, the “inhibition zone diameter” value (Salmonella typhimurium) was “++++ ((++++) 15-19 mm)” and the “minimal inhibitory concentration (MIC)” value (Y. enterocolitica) was 1 to 5 µg/mL. The “inhibition zone diameter” value (Klebsiella pneumoniae) was “++ ((++) 7-9 mm)”, the “inhibition zone diameter” value (Erwinia amylovora) was “+++ ((+++) 10-14 mm)” and the “inhibition zone diameter” value [1] was “++++ ((++++) 15-19 mm)”. For the same compound, the “inhibition zone diameter” value (Rhizobium meliloti) was “+++++ ((+++++) 20 or more min)”, the “minimal inhibitory concentration (MIC)” value (M. morganii) was greater than 40 µg/mL and the “minimal inhibitory concentration (MIC)” value (E. coli 25922) was 0.5 to 1 µg/mL. For the same compound, the “inhibition zone diameter” value (Francisella tularensis) was “++ ((++) 7-9 mm)”, the “minimal inhibitory concentration (MIC)” value (E. coli 11775; inoculum 16 × 10^6 CFU/ml) was 1 to 5 µg/mL and the “minimal inhibitory concentration (MIC)” value (E. coli 11775; inoculum 1200 CFU/ml) was 0.1 to 0.5 µg/mL. For the same compound, the “minimal inhibitory concentration (MIC)” value (S. typhimurium) was 1 to 5 µg/mL, the “minimal inhibitory concentration (MIC)” value (E. coli Apid^R; inoculum 12 × 10^6 CFU/ml) was greater than 40 µg/mL and the “minimal inhibitory concentration (MIC)” value (E. coli Apid^R; inoculum 1000 CFU/ml) was greater than 40 µg/mL. The “inhibition zone diameter” value (Haemophilus influenzae) was “++ ((++) 7-9 mm)”, the “inhibition zone diameter” value (Enterobacter cloacae) was “+++ ((+++) 10-14 mm)” and the “minimal inhibitory concentration (MIC)” value (A. calcoaceticus) was greater than 20 µg/mL. The “inhibition zone diameter” value (Escherichia coli (K514)) was “++ ((++) 7-9 mm)”, the “inhibition zone diameter” value (Pseudomonas syringae) was “++++ ((++++) 15-19 mm)” and the “inhibition zone diameter” value [2] was “+++ ((+++) 10-14 mm)”. The “inhibition zone diameter” value (Yersinia enterocolitica) was “+++ ((+++) 10-14 mm)”.
